Assays:
[1] = Hen Brain Se Concentration; type: in vivo, White-Egg-Laying Hens; conditions: hens; diet with 0.3 ppm Se from the source
Description: (§1) Compositions and methods of the present invention were utilized to evaluate the effects of various Se sources on the accumulation of brain Se concentrations in hens and their offspring.
(§2) The study was conducted at the Coldstream Research Facility from Jun. 28, 2004 until Nov. 16, 2004. Six dietary treatments were fed to a total of 48 hens (r=8) that were bred on three consecutive days starting on Sep. 16, 2004.
(§3) • Basal (no added Se) • Selenite (0.3 ppm) • Sel Plex (0.3 ppm) • Tepsel (0.3 ppm) • Se 2000 (0.3 ppm) • Selenosource (0.3 ppm)
(§4) Chicks that hatched were divided into two groups. Half of the chicks were killed for brain collection and the remaining chicks were allowed to grow for 14 days on a Se deficient diet, at which time they were terminated for brain collection. Hen brains were analyzed for Se content individually, whereas the chick brains were homogenized and pooled because of small sample size.
(§5) Brain Se concentrations for the hens and chicks are shown in Tables 4 and 5, below, respectively. The Selenosource value represents only one hen brain analyzed and therefore was not included in the statistical analysis.

[2] = Chick Brain Se Concentration at day 14; type: in vivo, chicks (offspring of treated hens); conditions: offspring of hens fed 0.3 ppm Se; chicks 14 days on Se deficient diet; pooled brains
Description: as §1, §2, §3, §4, §5

[3] = Body weight of mice on selenium diets; type: in vivo, mouse; conditions: diet 1 ppm Se vs selenium deficient diet; FIG. 1
Text: (§6) Animal Care. Male C57BL/6J mice were housed singly and started on the experimental diets described below immediately after weaning (21 days of age). The mice were maintained in the Shared Aging Rodent Facility at the William S. Middleton Memorial Veterans Administration Medical Center (Madison, Wis.). Temperature and humidity were maintained at constant levels. Room light was controlled to provide 12-hr cycles of light and dark.
Experimental diets were created by Harlan Teklad (Madison, Wis.). Selenium content of the diets was determined by Covance Inc. (Madison, Wis.). […]
Thus, it was an object of the present invention to determine whether compositions and methods of the present invention could alter the expression levels (e.g., mRNA levels) of various genes. One group of genes analyzed were genes classically associated with selenium. As described above, the expression levels of genes were analyzed between mice with and without dietary selenium, or, between mice fed different sources of selenium) (See, e.g., Table 1, below).

[4] = tested on: Amyloid beta (A4) precursor protein-binding, family A, member 1(Apba1); test: Microarray gene expression, mouse cerebral cortex: Apba1; type: in vivo; conditions: diet 1 ppm Se, vs Se-deficient animals, * P < 0.01
Text: as §6
(§7) Experimental diets were created by Harlan Teklad (Madison, Wis.). Selenium content of the diets was determined by Covance Inc. (Madison, Wis.). Five (5) animals were included in each of the following treatment groups: a diet deficient in selenium (SD); a diet supplemented with selenomethionine (SM, obtained from Sigma, St. Louis, Mo.) such that the final selenium content of the diet was one (1) part per million; a diet supplemented with sodium selenite (SS, Sigma) such that the final concentration of selenium in this diet was one (1) part per million; or a diet supplemented with the yeast selenium SEL-PLEX (SP, Alltech, Lexington, Ky.), such that the final concentration of selenium in this diet was one (1) part per million. SEL-PLEX. […]
(§8) Tissue sample preparation and microarray analysis. […] For intestinal expression studies, the intestine was flushed twice with saline solution and small intestine was measured and divided in three equal segments. […]

Presenilin 1 = test: Microarray gene expression, mouse cerebral cortex: Presenilin 1; type: in vivo; conditions: diet 1 ppm Se, vs Se-deficient animals, * P < 0.01
Text: as §6, §7, §8

[5] = tested on: Glutathione S-transferase, theta 2 (Gstt2); test: Microarray gene expression, mouse intestine: Gstt2; type: in vivo; conditions: diet 1 ppm Se, vs Se-deficient diets, negative = down
Text: as §6, §7, §8

[6] = tested on: Amyloid beta (A4) precursor-like protein (Aplp 1); test: Microarray gene expression, mouse cerebral cortex: Aplp 1; type: in vivo; conditions: diet 1 ppm Se, vs Se-deficient animals, * P < 0.01
Text: as §6, §7, §8

Thioredoxin Reductase 1 = test: Microarray gene expression, mouse intestine: Thioredoxin Reductase 1; type: in vivo; conditions: diet 1 ppm Se, vs selenium deficient, p <0.01
Text: as §6, §7, §8

Junb = test: Microarray gene expression, mouse cerebral cortex: Junb; type: in vivo; conditions: diet 1 ppm Se, vs Se-deficient animals, * significant
Text: as §6, §7, §8

[7] = tested on: Glutathione S-transferase, mu3 (Gstm3); test: Microarray gene expression, mouse intestine: Gstm3; type: in vivo; conditions: diet 1 ppm Se, vs Se-deficient diets, negative = down
Text: as §6, §7, §8

[8] = tested on: Complement component 1, q subcomponent, alpha polypeptide, C1qa; test: Microarray gene expression, mouse cerebral cortex: C1qa; type: in vivo; conditions: diet 1 ppm Se, vs selenium deficient, * p<0.01
Text: as §6, §7, §8

[9] = tested on: Complement component 1, r subcomponent, C1r; test: Microarray gene expression, mouse cerebral cortex: C1r; type: in vivo; conditions: diet 1 ppm Se, vs selenium deficient, * p<0.01
Text: as §6, §7, §8

[10] = tested on: Glutathione S-transferase, mu2 (Gstm2); test: Microarray gene expression, mouse intestine: Gstm2; type: in vivo; conditions: diet 1 ppm Se, vs Se-deficient diets, negative = down
Text: as §6, §7, §8

[11] = tested on: Type 1 iodothyronine deiodinase; test: Microarray gene expression, mouse intestine: Type 1 iodothyronine deiodinase; type: in vivo; conditions: diet 1 ppm Se, vs selenium deficient
Text: as §6, §7, §8

Gst pi 1 (Gstp1) = test: Microarray gene expression, mouse cerebral cortex: Gstp1; type: in vivo; conditions: diet 1 ppm Se, vs Se-deficient animals, * significant
Text: as §6, §7, §8

[12] = tested on: Complement component 1, q subcomponent, gamma polypeptide, C1qg; test: Microarray gene expression, mouse cerebral cortex: C1qg; type: in vivo; conditions: diet 1 ppm Se, vs selenium deficient, * p<0.01
Text: as §6, §7, §8

Gst mu 7 (Gstm7) = test: Microarray gene expression, mouse cerebral cortex: Gstm7; type: in vivo; conditions: diet 1 ppm Se, vs Se-deficient animals, * significant
Text: as §6, §7, §8

Gadd45b = test: Microarray gene expression, mouse cerebral cortex: Gadd45b; type: in vivo; conditions: diet 1 ppm Se, vs Se-deficient animals, * significant
Text: as §6, §7, §8

[13] = tested on: Growth arrest and DNA-damage-inducible 45 gamma (Gadd45g); test: Microarray gene expression, mouse intestine: Gadd45g; type: in vivo; conditions: diet 1 ppm Se, vs selenium deficient, negative = down, listed as SS
Text: as §6
Experimental diets were created by Harlan Teklad (Madison, Wis.). Selenium content of the diets was determined by Covance Inc. (Madison, Wis.). Five (5) animals were included in each of the following treatment groups: a diet deficient in selenium (SD); a diet supplemented with selenomethionine (SM, obtained from Sigma, St. Louis, Mo.) such that the final selenium content of the diet was one (1) part per million; a diet supplemented with sodium selenite (SS, Sigma) such that the final concentration of selenium in this diet was one (1) part per million; or a diet supplemented with the yeast selenium SEL-PLEX (SP, Alltech, Lexington, Ky.), such that the final concentration of selenium in this diet was one (1) part per million. SEL-PLEX. Mice were provided with water and their respective diet ad libitum for 100 days. Diets were stored at the dark at 4° C. and fresh diet was added to feeder twice weekly.
Tissue sample preparation and microarray analysis. Mice were killed at 100 days of age by cervical dislocation. For intestinal expression studies, the intestine was flushed twice with saline solution and small intestine was measured and divided in three equal segments. A 3-cm region of the middle segment of the small intestine corresponding to the jejunum (˜300 mg of tissue) was cut and rinsed again with physiological saline to completely remove contents, flash frozen in liquid nitrogen and stored at −80° C. For brain (e.g., cerebral cortex) studies, the cerebral cortex was separated from the surrounding brain tissue and was flash frozen in liquid nitrogen and stored at −80° C. […]

[14] = tested on: Amyloid beta (A4) precursor protein-binding, family B, member 1 (Apbb1 or Fe65); test: Microarray gene expression, mouse cerebral cortex: Apbb1/Fe65; type: in vivo; conditions: diet 1 ppm Se, vs Se-deficient animals, * P < 0.01
Text: as §6, §7, §8

[15] = tested on: Glutathione S-transferase, mu1 (Gstm1); test: Microarray gene expression, mouse intestine: Gstm1; type: in vivo; conditions: diet 1 ppm Se, vs Se-deficient diets, negative = down
Text: as §6, §7, §8

Gst zeta 1 (Gstz1) = test: Microarray gene expression, mouse cerebral cortex: Gstz1; type: in vivo; conditions: diet 1 ppm Se, vs Se-deficient animals, * significant
Text: as §6, §7, §8

Glutathione Peroxidase 3 = test: Microarray gene expression, mouse intestine: Glutathione Peroxidase 3; type: in vivo; conditions: diet 1 ppm Se, vs selenium deficient, all p < 0.01
Text: as §6, §7, §8

Cathepsin D = test: Microarray gene expression, mouse cerebral cortex: Cathepsin D; type: in vivo; conditions: diet 1 ppm Se, vs Se-deficient mice, * significant
Text: as §6, §7, §8

Cathepsin B = test: Microarray gene expression, mouse cerebral cortex: Cathepsin B; type: in vivo; conditions: diet 1 ppm Se, vs Se-deficient mice, * significant
Text: as §6, §7, §8

SelR (Selenoprotein X1) = test: Microarray gene expression, mouse intestine: SelR; type: in vivo; conditions: diet 1 ppm Se, vs selenium deficient
Text: as §6, §7, §8

Selenoprotein W (SelW) = test: Microarray gene expression, mouse intestine: SelW; type: in vivo; conditions: diet 1 ppm Se, vs selenium deficient
Text: as §6, §7, §8

Cathepsin Z = test: Microarray gene expression, mouse cerebral cortex: Cathepsin Z; type: in vivo; conditions: diet 1 ppm Se, vs Se-deficient mice, * significant
Text: as §6, §7, §8

Glutathione Peroxidase 1 = test: Microarray gene expression, mouse intestine: Glutathione Peroxidase 1; type: in vivo; conditions: diet 1 ppm Se, vs selenium deficient, all p < 0.01
Text: as §6, §7, §8

[16] = tested on: Cu chaperone for SOD (CCS); test: Microarray gene expression, mouse intestine: CCS; type: in vivo; conditions: diet 1 ppm Se, vs selenium deficient
Text: as §6, §7, §8

Nicastrin = test: Microarray gene expression, mouse cerebral cortex: Nicastrin; type: in vivo; conditions: diet 1 ppm Se, vs Se-deficient animals, * P < 0.01
Text: as §6, §7, §8

[17] = tested on: Complement component 1, q subcomponent binding protein, C1qbp; test: Microarray gene expression, mouse cerebral cortex: C1qbp; type: in vivo; conditions: diet 1 ppm Se, vs selenium deficient, * p<0.01
Text: as §6, §7, §8

[18] = tested on: Complement component 1, q subcomponent, beta polypeptide, C1qbp; test: Microarray gene expression, mouse cerebral cortex: C1q beta polypeptide; type: in vivo; conditions: diet 1 ppm Se, vs selenium deficient, * p<0.01
Text: as §6, §7, §8

SOD1 = test: Microarray gene expression, mouse intestine: SOD1; type: in vivo; conditions: diet 1 ppm Se, vs selenium deficient
Text: as §6, §7, §8

[19] = tested on: Glutathione S-transferase, alpha 3 (Gsta3); test: Microarray gene expression, mouse intestine: Gsta3; type: in vivo; conditions: diet 1 ppm Se, vs Se-deficient diets, negative = down
Text: as §6, §7, §8

[20] = tested on: Gadd45g1p (Growth arrest and DNA-damage inducible 45 gamma interacting protein); test: Microarray gene expression, mouse cerebral cortex: Gadd45g1p; type: in vivo; conditions: diet 1 ppm Se, vs Se-deficient animals, * significant
Text: as §6, §7, §8

Cathepsin O = test: Microarray gene expression, mouse cerebral cortex: Cathepsin O; type: in vivo; conditions: diet 1 ppm Se, vs Se-deficient mice, * significant
Text: as §6, §7, §8

## O=[Se](O)O [Selenite]
[1]
  Hen Brain Se Concentration: 850 ppb
[2]
  Chick Brain Se Concentration at day 14: 784 ppb

## O=[Se](O)O [Sod-sel, sodium selenite]
[3]
  body weights of mice: No significant differences
[4]
  FC (fold change) expression of Apba1: −1.41 fold
Presenilin 1
  FC (fold change) expression of Presenilin 1: −1.11 fold
[5]
  FC (fold change) expression of Gstt2: −1.3 fold
[6]
  FC (fold change) expression of Aplp 1: −1.55* fold
Thioredoxin Reductase 1
  fold increase in expression of the Thioredoxin Reductase 1 gene: 1.7 fold
Junb
  FC (fold change) expression of Junb: −1.59 fold
[7]
  FC (fold change) expression of Gstm3: −2.7 fold
[8]
  FC (fold change) expression of C1qa: −1.18 fold
[9]
  FC (fold change) expression of C1r: −1.29 fold
[10]
  FC (fold change) expression of Gstm2: −2.1 fold
[11]
  fold increase of expression level of Type 1 iodothyronine deiodinase: 2.8 fold
Gst pi 1 (Gstp1)
  FC (fold change) expression of Gstp1: 1.02 fold
[12]
  FC (fold change) expression of C1qg: −1.07 fold
Gst mu 7 (Gstm7)
  FC (fold change) expression of Gstm7: −1.25* fold
Gadd45b
  FC (fold change) expression of Gadd45b in brain: −1.39* fold
[13]
  FC (fold change) expression of Gadd45g: −2.0 fold
[14]
  FC (fold change) expression of Apbb1 (Fe65): −1.32* fold
[15]
  FC (fold change) expression of Gstm1: −2.4 fold
Gst zeta 1 (Gstz1)
  FC (fold change) expression of Gstz1: −1.3 fold
Glutathione Peroxidase 3
  fold change in expression of Glutathione Peroxidase 3: 3.5 fold
Cathepsin D
  FC (fold change) expression of Cathepsin D: −1.24* fold
Cathepsin B
  FC (fold change) expression of Cathepsin B: −1.13* fold
SelR (Selenoprotein X1)
  expression of SelR, fold upregulated: 1.3 fold
Selenoprotein W (SelW)
  expression of Selenoprotein W (SelW), fold upregulated: 5.1 fold
Cathepsin Z
  FC (fold change) expression of Cathepsin Z: −1.30* fold
Glutathione Peroxidase 1
  fold change in expression of Glutathione Peroxidase 1: 4.1 fold
[16]
  enhancement in expression of the Cu chaperone for SOD (CCS), fold: 1.28 fold
Nicastrin
  FC (fold change) expression of Nicastrin: −1.67* fold
[17]
  FC (fold change) expression of C1qbp: 1.11 fold
[18]
  FC (fold change) expression of complement component 1, q subcomponent, beta polypeptide: −1.35 fold
SOD1
  enhanced expression of SOD1, fold: 1.92 fold
[19]
  FC (fold change) expression of Gsta3: −2.3 fold
[20]
  FC (fold change) expression of Gadd45g1p in brain: −1.12 fold
Cathepsin O
  FC (fold change) expression of Cathepsin O: −1.18 fold

From patent US8865763B2, “Methods and compositions for altering cell function” (Alltech, Inc., priority 2005, dated 2014)
